These results are taken from patent US20100239670A1, “Topical Composition Method for Treating Urinary Stress Incontinence” (Plethora Solutions Ltd., priority 2000, published 2010).

Structures are written as SMILES.

For data set [1] the following is noted: literature, cited from earlier work.
In data set [2] the test system is female patients with documented history of stress incontinence. Description: Supine and standing blood pressure and pulse rate in the same cross-over study. In kind it is in vivo. The note with it: single topical dose, gel 0.5 ml, 20% w/w; up to 5 hours post dosing. The method, then: (§1) The invention has been evaluated in a double-blind, randomised, 2-way cross-over study in female patients with documented history of stress incontinence. Each patient was exposed to both placebo and active drug over the course of the study.
(§2) Each patient received either a single dose of topical phenylephrine gel (20% w/w in a volume of 0.5 ml) or placebo according to the randomisation schedule. The gel was applied to the peri-urethral area; in, onto or around the area of the vagina and/or vaginal mucosa, in close proximity to the urethra. For up to 5 hours post dosing, urethral pressure was measured using the standard Lectromed/Galetec MPR/2 ambulatory measurement system. Supine and standing blood pressure and pulse rate was likewise measured using standard methodology via a Dinamap semi-automatic sphygmomanometer.

For data set [3] the test system is unchanged. Nature of the data set: Urethral pressure after topical gel, double-blind randomised 2-way cross-over study. The data set is classed as in vivo. The note with it: single topical dose, gel 0.5 ml, 20% w/w, applied to peri-urethral area; up to 5 hours post dosing; in contrast to placebo; two typical patients (FIGS. 1 and 2). The method, then:
as §1, §2

Turning to `CNC[C@H](O)c1cccc(O)c1` [phenylephrine], in data set [1] (not topical), the blood pressure result is on record as “substantial elevations”. In data set [1], the duration of action entry is recorded as “short”. For the same compound, the oral bioavailability entry in data set [1] (oral) is reported as “low”. Moreover, in data set [2], the “diastolic or systolic blood pressure” value is on record as “no clinically significant changes” and the pulse rate entry is listed as “no clinically significant changes”. In data set [3], the intra-urethral pressure result was “marked and sustained increases”.
